# What was measured:
# [1] = tested on: wild-type mice (O-MACS-Cre); test: Freezing test, quantification of fear reaction due to odor; type: in vivo, mouse; conditions: for Freezing time (%): mice, n=8, 20 min observation, value ± standard error, t-test vs 1,3-dioxolane; for freezing-inducing effect at too high a concentration: Example 3, FIG. 4, dilution series up to 1.082 mmol
# Protocol: About 5- to 7-month-old littermate wild-type mice (O-MACS-Cre) were placed in the mouse cages set in a draft (one mouse per cage) to perform habituation for 20 min. Similarly, 20 min habituation was performed the next day. On day 3, odor pods containing odorant molecules were placed in the cages in the draft, and the mice were placed in the cages with odor pods. The behaviors of the mice from day 1 to day 3 were video-recorded and the freezing time was analyzed by FreezeFrame system manufactured by NeuroScience Inc. The time during which the mouse was motionless for 2 seconds or longer was measured as a freezing time, and the time of freezing during the 20 min observation time was shown in %. The freezing time on day 2 was shown as control without odor in the data. As the mice used for experiment, male mice were used to avoid abnormality in the olfactory sense due to the sexual cycle. […] The odor pod refers to an apparatus containing filter paper impregnated with odorant and placed in a plastic petri dish with a lid having a hole. In this experiment, 2 MB (2-methylbutyric acid) 45 μL (270.6 μmol) or TMT 35 μL (270.6 μmol) was used as the odorant molecule.
# Using various compounds, the freezing test shown in Experimental Example 1 was performed. […] For the experiment, 270.6 μmol of odorant molecules were used. The abbreviations and the formal names of the odorant molecules used are as follows.
# The influence of the concentration of the odorant molecule on the effect of inducing a freezing behavior was analyzed. […] The freezing behavior was analyzed by a method similar to that in Example 1. The amount of the odorant molecules used of the both compounds was 270.6 nmol for 0.001, 2.706 μmol for 0.01, 27.06 μmol for 0.1, 270.6 μmol for 1, and 1.082 mmol for 4. The odorant molecule concentration in the gas in the test system was measured by gas chromatography, and the presence of a dependency relationship between the amount of the odorant molecules used for the test and the odorant molecule concentration in the gas in the test system was confirmed.
# Using the following test compounds (13 kinds), the freezing test shown in Experimental Example 1 was performed. […] For the experiment, 270.6 μmol of odorant compounds were used.
# mice = test: Acclimation test (freezing time on daily odor exposure for 8 days); type: in vivo, mouse
# Protocol: About 5- to 7-month-old littermate wild-type mice (O-MACS-Cre) were placed in the mouse cages set in a draft (one mouse per cage) to perform habituation for 20 min. Similarly, 20 min habituation was performed the next day. On day 3, odor pods containing odorant molecules were placed in the cages in the draft, and the mice were placed in the cages with odor pods. The behaviors of the mice from day 1 to day 3 were video-recorded and the freezing time was analyzed by FreezeFrame system manufactured by NeuroScience Inc. The time during which the mouse was motionless for 2 seconds or longer was measured as a freezing time, and the time of freezing during the 20 min observation time was shown in %. The freezing time on day 2 was shown as control without odor in the data. As the mice used for experiment, male mice were used to avoid abnormality in the olfactory sense due to the sexual cycle. Each experiment was performed with n=5. The odor pod refers to an apparatus containing filter paper impregnated with odorant and placed in a plastic petri dish with a lid having a hole. In this experiment, 2 MB (2-methylbutyric acid) 45 μL (270.6 μmol) or TMT 35 μL (270.6 μmol) was used as the odorant molecule.
# Acclimation test: By the method of Experimental Example 1, mice (N=8) were forced to smell the test compound (2MT) every day for 8 days, and the freezing time (%) was measured over time. As a control, mice that were forced to learn to feel fear with the smell of anisole by a method including applying an electric shock immediately after smelling anisole (hereinafter to be also referred to as fear learning mice) were used. The aforementioned fear learning mice (N=8) were forced to smell anisole every day for 8 days, and the freezing time (%) was measured over time.
Structure (SMILES),"Freezing time (%) ([1]; Example 4, 270.6 μmol odorant)",also measured
CCc1nccs1 [2-ethylthiazole],7.3 ± 1.6,–
"CC1=NC(C)SC1C (centres unmarked) [TMT, 2,4,5-trimethyl-3-thiazoline, reference compound]",–,"freezing-inducing effect at too high a concentration [1]: decreased effect; freezing time compared with 2 MB (putrid odor) ([1]; Experimental Example 1, FIG. 1, mice n=5, 270.6 μmol odorant): longer freezing time"
"CC1=NCCS1 [2MT, 2-methyl-2-thiazoline]",49.9 ± 3.0,"freezing time profile on smelling the odor every day for 8 days (mice; Example 5, FIG. 5, mice N=8, not conditioned): did not decrease but rather increased; freezing-inducing effect at too high a concentration [1]: decreased effect"
C1CSCCN1 [thiomorpholine],15.9 ± 2.5,–
c1ccsc1 [thiophene],2.7 ± 1.6,–
CCN=C=S [ethyl isothiocyanate],14.0 ± 4.5,–
CSC1=NCCS1 [2-methylthio-2-thiazoline],6.2 ± 3.0,–
CC1(C)CS1 [isobutylene sulfide],4.3 ± 1.9,–
C1CSCN1 [thiazolidine],18.2 ± 5.3,–
"CC1(C)NCCS1 [2,2-dimethylthiazolidine]",29.3 ± 5.2,–
"CC1=NCC(C)S1 (centres unmarked) [2,5-dimethyl-2-thiazoline]",55.9 ± 4.4,–
Brc1nccs1 [2-bromothiazole],4.8 ± 1.6,–
CC1CN=CS1 (centres unmarked) [5-methyl-2-thiazoline],39.6 ± 3.5,–
CC1CNCS1 (centres unmarked) [5-methylthiazolidine],4.2 ± 2.7,–
COc1ccccc1 [anisole],–,"freezing time profile on smelling the odor every day (mice; Example 5, FIG. 5, fear learning mice, anisole every day for 8 days, N=8): decreased with time; freezing time with anisole the next day (mice; Example 5, fear learning mice (electric shock after smelling anisole), N=8): not less than 50%"
"C1COCO1 [1,3-dioxolane, reference compound]",–,"fear reaction of the comparison odorant ([1]; Example 4, odorant used as comparison for the t-test): does not induce a fear reaction"

# Reference: patent US9918472B2, “Animal repellent” (SCENT SCIENCE INTERNATIONAL INC., priority 2010, dated 2018)
